Results as given in patent US12077537B2 (Gilead Sciences, Inc., priority 2020, dated 2024).

test system: HIV-IIIb; test: Antiviral assay in MT4 cells; format: cell-based; settings: Human immunodeficiency virus 1, MT4, 120 h; MT-4 cells mixed with HIV-IIIb at m.o.i. 0.003; 5 days at 37° C.; CellTiter-Glo luminescence; 50% decrease in signal, a measure of HIV-1 replication
How it was run: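 Compound, tested at ten 3-fold dilutions in quadruplicate in 10% FBS medium, received MT-4 cells pre-mixed 1 hour with HIV-IIIb (m.o.i. 0.003). Protection was read as luminescent cell viability (CellTiter-Glo) after 5 days' culture at 37° C.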

Row | SMILES | EC50 [nM]
1 | CNc1nc2nc([C@H](Cc3cc(F)cc(F)c3)NC(=O)Cn3nc(C(F)(F)F)c4c3C(F)(F)[C@@H]3C[C@H]43)c(-c3cccc4c(NS(C)(=O)=O)nn(C)c34)cc2s1 [Example 79, 2-((3bS,4aR)-5,5-difluoro-3-(trifluoromethyl)-3b,4,4a,5-tetrahydro-1H-cyclopropa[3,4]cyclopenta[1,2-c]pyrazol-1-yl)-N—((S)-2-(3,5-difluorophenyl)-1-(6-(1-methyl-3-(methylsulfonamido)-1H-indazol-7-yl)-2-(methylamino)thiazolo[4,5-b]pyridin-5-yl)ethyl)acetamide] | 14.9
2 | NC(=O)c1cc(-c2cc3sc(N4CCN(C5COC5)CC4)nc3nc2[C@H](Cc2cc(F)cc(F)c2)NC(=O)Cn2nc(C(F)F)c3c2C(F)(F)CCC3(F)F)ccc1F [Compound 5] | 76.9

Continued by falling EC50, values first:

Row | EC50 [nM] | SMILES
3 | 79.6 | Cn1nc(NS(C)(=O)=O)c2cccc(-c3cc4[nH]c(-c5ccccc5)cc4nc3[C@H](Cc3cc(F)cc(F)c3)NC(=O)Cn3nc(C(F)(F)F)c4c3C(F)(F)[C@@H]3C[C@H]43)c21 [Example 121, 2-((3bS,4aR)-5,5-difluoro-3-(trifluoromethyl)-3b,4,4a,5-tetrahydro-1H-cyclopropa[3,4]cyclopenta[1,2-c]pyrazol-1-yl)-N—((S)-2-(3,5-difluorophenyl)-1-(6-(1-methyl-3-(methylsulfonamido)-1H-indazol-7-yl)-2-phenyl-1H-pyrrolo[3,2-b]pyridin-5-yl)ethyl)acetamide]
4 | 33.8 | Cn1nc(NS(C)(=O)=O)c2cccc(-c3cc4sc(N5CCC(C)(N)CC5)nc4nc3C(Cc3cc(F)cc(F)c3)NC(=O)Cn3nc(C(F)(F)F)c4c3C(F)(F)[C@@H]3C[C@H]43)c21 (stereo partly drawn) [Example 126, N-(1-(2-(4-amino-4-methylpiperidin-1-yl)-6-(1-methyl-3-(methylsulfonamido)-1H-indazol-7-yl)thiazolo[4,5-b]pyridin-5-yl)-2-(3,5-difluorophenyl)ethyl)-2-((3bS,4aR)-5,5-difluoro-3-(trifluoromethyl)-3b,4,4a,5-tetrahydro-TH-cyclopropa[3,4]cyclopenta[1,2-c]pyrazol-1-yl)acetamide]
5 | 20.4 | Cn1nc(NS(C)(=O)=O)c2cccc(-c3cc4sc(N5CC(C)(O)C5)nc4nc3[C@H](Cc3cc(F)cc(F)c3)NC(=O)Cn3nc(C(F)(F)F)c4c3C(F)(F)[C@@H]3C[C@H]43)c21 [Compound 53, 2-((3bS,4aR)-5,5-difluoro-3-(trifluoromethyl)-3b,4,4a,5-tetrahydro-1H-cyclopropa[3,4]cyclopenta[1,2-c]pyrazol-1-yl)-N—((S)-2-(3,5-difluorophenyl)-1-(2-(3-hydroxy-3-methylazetidin-1-yl)-6-(1-methyl-3-(methylsulfonamido)-1H-indazol-7-yl)thiazolo[4,5-b]pyridin-5-yl)ethyl)acetamide]
